The record followed here is ChEMBL document CHEMBL4706652, “Synthesis of 4-(3-oxo-3-phenylpropyl)morpholin-4-ium chloride analogues and their inhibitory activities of nitric oxide production in lipopolysaccharide-induced BV2 cells” (Bioorg Med Chem Lett, 2021).

Where a name gives a salt, the structure may show the parent alone.

A short description of data set [1]: Inhibition of LPS-induced nitric oxide production in […] BV-2 cells at 20 uM measured after 24 hrs by Griess reagent assay relative to control. It counts as functional, Mus musculus. The conditions noted are these: for inhibition at 20 µM: BV-2, 24 h.
Data set [2] in a line: Cytotoxicity against LPS-induced […] BV-2 cells assessed as cell viability at 20 uM measured after 24 hrs by MTT assay relative to control. The class given is cell-based. The settings on record: for viability at 24 h, 20 µM: LPS-induced BV-2 cells, read-out: Activity. (In general: Formazan colour is commonly taken as a measure of viable cells.)
The test system of data set [3] is BV-2. The data set is described as follows: Inhibition of LPS-induced nitric oxide production in […] BV-2 cells assessed as decrease in iNOS protein expression pretreated with LPS for 1 hr and measured after 18 hrs by immunoblot analysis. The class given is functional, cell-based. The conditions noted are these: dose 2-20 µM, time 19.0 hrs.
Data set [4] can be described thus: (§1) Inhibition of LPS-induced nitric oxide production in […] BV-2 cells measured after 24 hrs by Griess reagent assay. It counts as functional, cell-based. The settings on record: BV-2, 24 h.
In data set [5] the test system is BV-2. The data set is described as §1. It counts as functional, cell-based.
In data set [6] the test system is BV-2. The data set is described as follows: Inhibition of LPS-induced nitric oxide production in […] BV-2 cells assessed as decrease in iNOS mRNA expression pretreated with LPS for 1 hr and measured after 6 hrs by RT-PCR analysis. The class given is functional, cell-based. The settings on record: dose 2-20 µM, time 7.0 hrs.
A short description of data set [7]: Cytotoxicity against LPS-induced […] BV-2 cells assessed as cell viability at 12.5 to 50 uM measured after 24 hrs by MTT assay. It counts as cell-based. The conditions noted are these: bv-2, 24 h, dose 12.5-50 µM.
Data set [8] can be described thus: Inhibition of LPS-induced nitric oxide production in […] BV-2 cells at 12.5 to 50 uM measured after 24 hrs by Griess reagent assay relative to control. It counts as functional. The settings on record: dose 12.5-50 µM.
The next data set is described as follows: cells. The settings on record: Homo sapiens, BV-2, 24 h, read-out: INH.

Description for cells: Inhibition of LPS-induced nitric oxide production in human BV-2 cells at 10 uM measured after 24 hrs by Griess reagent assay relative to control

In turn, `O=C(CCN1CCOCC1)c1cccc(C(F)(F)F)c1` came in with an inhibition at 20 µM in data set [1] of 44.6%. Further, the viability at 24 h, 20 µM in [2] amounted to 100%.
Taken in the same sequence, the figures for `O=C(CN1CCOCC1)C(=O)c1ccccc1` were 19.2% and 100%.
Take `O=C(CCN1CCOCC1)c1ccc(O)cc1`: in data set [1], the inhibition at 20 µM stood at 26.5%. Also, the viability at 24 h, 20 µM in data set [2] came out at 99%.
Taken in the same sequence, the figures for `O=C(CCN1CCOCC1)c1ccc([N+](=O)[O-])cc1` were 73.1% and 98.3%.
In the same order, the values of `O=C(CCN1CCOCC1)c1ccc(Cl)cc1` are 40.3% and 100%.
Compound `COc1ccc(C(=O)CCN2CCOCC2)cc1` yielded an inhibition at 20 µM in data set [1] of 33.3%. Moreover, the viability at 24 h, 20 µM in data set [2] is 100%.
In [1], `Cc1ccc(C(=O)CCN2CCOCC2)cc1` gave an inhibition at 20 µM of 36%. Moreover, the viability at 24 h, 20 µM in data set [2] came to 100%.
In the same order, the values of `Nc1ccc(C(=O)CCN2CCOCC2)cc1` are 25.2% and 100%.
In the same order, the values of `O=C(CCN1CCOCC1)c1ccc(I)cc1` are 41.6% and 89.4%.
With `O=C(CCN1CCOCC1)c1ccccc1`, the inhibition at 20 µM in data set [1] is 31.8%. The viability at 24 h, 20 µM in [2] worked out at 99.8%.
In the same order, the values of `O=C(Cc1ccccc1)CN1CCOCC1` are 17.4% and 100%.
In data set [1], `O=C(CCN1CCOCC1)c1ccccc1C(F)(F)F` displayed an inhibition at 20 µM of 78.3%. Also, the inhibition entry with BV-2 [3], in the data set on BV-2 [5] and in the data set on BV-2 [6] was “Dose-dependent effect” each time. In addition, the IC50 (usually the concentration that gives 50% inhibition) in data set [4] was found to be 8.6 µM. The viability at 24 h, 20 µM in data set [2] came out at 100%.
`Cl.O=C(CCN1CCOCC1)c1ccccc1`: the Activity result in data set [7] was “Non-Toxic”; in data set [2] (bv-2, 24 h, 20 µM), 96.7%. Besides, the “inhibition (INH)” value in data set [1] is 29.3%; in data set [8] it was 49%. For the same compound, the IC50 in [4] is greater than 50 µM.
In [1], `O=C(CC(=O)N1CCOCC1)c1ccccc1` displayed an inhibition at 20 µM of 20.1%. For the same compound, the viability at 24 h, 20 µM in data set [2] came out at 99.7%.
For the compound `CNCCC(Oc1ccc(C(F)(F)F)cc1)c1ccccc1` (centres undefined) [FLUOXETINE HYDROCHLORIDE], the inhibition at 10 µM in “cells” amounted to 31.2%.
Turning to `O=C(CCN1CCOCC1)c1ccc(F)cc1`, the inhibition at 20 µM in data set [1] amounted to 35.2%. In addition, the viability at 24 h, 20 µM in [2] was 95%.
In the same order, the values of `O=C(CCN1CCOCC1)c1ccc(Br)cc1` are 41.6% and 100%.
Taken in the same sequence, the figures for `CN(C)c1ccc(C(=O)CCN2CCOCC2)cc1` were 32.8% and 100%.
In turn, `O=C(CCN1CCOCC1)c1ccc(C(F)(F)F)cc1` came in with an inhibition at 20 µM in data set [1] of 50.3%. Besides, the viability at 24 h, 20 µM in data set [2] came to 96.1%.
